Data from patent US7776833B2, “Use of cyclic bioisosters of purine system derivatives for treating diseases produced by disorders of niterergic and dopaminergic systems” (priority 2003, dated 2010).

Legend:
Assay type in all cases: in vivo, Wistar rats
[1] = test system: nitrites and nitrates (NOx-); assay: Measurement of nitrates/nitrites (NOx-) in brain regions after the morphine abstinence experiment; settings: 3 x 20 mg/kg intramuscularly
Protocol: (§1) After the above experiments the rat brains were isolated and immediately placed in the ice cold 0.9% solution of sodium chloride. After cooling the following structures were isolated from the brain: cerebral cortex, hippocampus, mesencephalon, striatum, brainstem, hypothalamus and cerebellum. The isolated tissue was homogenized in a Potter S homogenizer for 3 minutes at 1500 rpm in 4-5 volumes of 20 mM HEPES (pH 7.5) at 4° C. The supernatants were centrifuged for 30 minutes at 11000 g at 4° C., and aliquots of the obtained supernatants were taken for determining nitrates and nitrites (NOx-), while the remaining part was mixed with cooled 20 mM of HEPES (pH 7.5), containing 0.5 mM ethylenediamine tetraacetate (EDTA), 1 mM dithiotreitol (DDT), 1 mM phenylmethylsulfonyl fluoride (PMSF), aprotinine and leupeptine at a concentration of 5 μg/ml, this mixture being used for determining nitric oxide synthase (NOS) activity.
To estimate the intensity of metabolism of nitric oxide in rats, quantitative determination of stable metabolites of nitrogen oxide-nitrites and nitrates (NOx-) was performed using a fluorometric method by fluorescence of naphthotriazole, a product of reaction of 2,3- diaminonaphthalene (DAN) and nitrite in an acidic medium (Misko T. R., Schilling R. J., Salvemini D. et al. A fluorometric assay for the measurement of nitrite in biological samples. Anal. Biochem., 1993, V. 214, p.11-16) with modifications (Lei B., Adachi N., Nagaro T., Arai T. Measurement of total nitric oxide metabolite (NO (x) (-)) levels in vivo. Brain. Res. Protoc., 1999, V. 4, p. 415-419).
The supernatants of brain deproteinized at 100° C. were placed in a nitrite recovery system containing 0.125 unit/ml of nitrate reductase, 25 μM NADPH and 25 μM FAD prepared in 20 mM Tris-HCl buffer pH 7.6 and incubated for 30 minutes at 37° C. For oxidation of NADPH a lactate dehydrogenase (LDH)/pyruvate system was used. Then 316.0 μM DAN solution in 0.62 M HCl was added and the mixture was incubated for 10 minutes in dark. For stabilization of fluorescence of the formed naphthotriazole, 280 mM NaOH was added. The fluorescence intensity was measured using spectrofluorometer Hitachi F-3000 at a wavelength of excitation 365 nm and emission 405 nm. To calculate the concentration of NOx- in the brain a standard solution of sodium nitrate was used. The concentration of NOx- was expressed in nmol/mg of protein.
(§2) The content of protein in the samples was determined by the Bradford method (Bradford M. M. A rapid and sensitive method for quantitation of microgram quantities of protein using the principle of protein binding . Anal. Biochem., 1976, V. 72, p. 248-254) using Coumassi dye. The statistical analysis was performed using methods appropriate for respective experiments. The data are expressed as mean±standard error of mean.

[2] = test system: physical dependence from morphine (morphine abstinence); assay: Morphine abstinence syndrome, signs scored in the open field test; settings: Morphine − (morphine + compound); compound 3 x 20 mg/kg intramuscularly; one value for the three compounds
Protocol: Thirty six hours after the last injection selected motor and autonomice parameters which are specific symptoms of abstinence were monitored in the <<open field>> test (an arena with a diameter of 120 cm and wall height of 40 cm).
Med., 2002, V.29, p.1-6.). The observable signs were recorded quantitatively (if it was possible) with further assignment of an index to each sign (depending on the specific feature of the sign) and calculation of the sum of scores. The expression of the abstinence syndrome was presented as a sum of scores. The results were processed using nonparametric statistical analysis based on the Mann-Whitney test.

[3] = test system: nitric oxide synthase (NOS); assay: Nitric oxide synthase activity in brain regions, radiometric [3H]L-citrulline method; settings: 3 x 20 mg/kg intramuscularly
Protocol: as §1
The activity of nitric oxide synthase (NOS) was determined using a radiometric method by the rate of L-citrulline accumulation in a reaction of [^3H] L-arginine oxidation catalyzed by NOS (Bredt M., Snyder S. Nitric oxide mediates glutamate-linked enhancement of cGMP levels in the cerebellum. Proc. Natl. Acad. Sci., USA, 1989, V.86, p.9030-9033). The formation of L-citrulline in this reaction is equivalent to a biosynthesis of nitric oxide.
The reaction was initiated by adding brain supernatant in the reaction medium containing 2 μCi/ml of [3H] L-arginine, 20 mM HEPES (pH 7.4), 0.2 mM CaCl2, 5 μM FAD, 5 μM FMN, 1 mM NADPH, 50 μM of BH4. After 15-60 minutes of incubation at 37° C. a suspension of Dowex 50WX8-400 (Na^+-form), which sorbs unreacted [^3H]L-arginine, but not [^3H] L-citrulline was added to the samples. After the sorption the radioactivity of the samples was determined on a scintillation counter SL-4000 (“Intertechnique”). The activity of Ca^2+-dependent and Ca^2+-independent NOS isoforms was determined by the difference of rates of [^3H]L-citrulline formation in three parallel samples containing 2 mM EDTA (Ca^2+ chelator), 2 mM EDTA+2 mM L-NAME (inhibitor all NOS isoforms) or without inhibitors. The enzyme activity was expressed in rnol [^3H]L-citrulline acumulated per 1 minute on 1 mg of supernatant protein.
as §2

[4] = Groups Nos. 3-14, compound without morphine, one value for all 12 compounds
[5] = Morphine + compound, one value for the three compounds

Compound	Nitrites, brainstem [1, 4]	Nitrites, cerebellum [1, 4]	Nitrites, cerebral cortex [1, 4]	Nitrites, hippocampus [1, 4]	Nitrites, hypothalamus [1, 4]	Nitrites, midbrain [1, 4]	Nitrites, striatum [1, 4]	Nitrites, brainstem [1, 5]	Nitrites, cerebellum [1, 5]	Nitrites, cerebral cortex [1, 5]	Nitrites, hippocampus [1, 5]	Nitrites, hypothalamus [1, 5]	Nitrites, midbrain [1, 5]	Nitrites, striatum [1, 5]	Authentic differences (ξ-square criterion) in appearance of signs of abstinence: <<Wet dog>> shakes [2]	Authentic differences (ξ-square criterion) in appearance of signs of abstinence: Aggression [2]	Authentic differences (ξ-square criterion) in appearance of signs of abstinence: Convulsions [2]	Authentic differences (ξ-square criterion) in appearance of signs of abstinence: Diarrhea [2]	Authentic differences (ξ-square criterion) in appearance of signs of abstinence: Dyspnea [2]	Authentic differences (ξ-square criterion) in appearance of signs of abstinence: Forelimb jogging [2]	other results
Nc1ccc2c(=O)n([C@@H]3O[C@H](CO)[C@@H](O)[C@H]3O)[nH]c(=O)c2c1.[Na] [Compound 11, sodium salt of 6-amino-2-(β-D-ribofuranosile)benzo[d]-3H-pyridazine-1,4-dione]	6.31 ± 0.58 nmol/mg of protein	6.66 ± 0.63 nmol/mg of protein	4.31 ± 0.37 nmol/mg of protein	6.47 ± 0.72 nmol/mg of protein	6.77 ± 0.83 nmol/mg of protein	6.65 ± 0.70 nmol/mg of protein	6.11 ± 0.29 nmol/mg of protein	6.99 ± 0.82 nmol/mg of protein	5.85 ± 0.47 nmol/mg of protein	4.93 ± 0.39 nmol/mg of protein	5.24 ± 0.49 nmol/mg of protein	6.91 ± 0.58 nmol/mg of protein	5.75 ± 0.39 nmol/mg of protein	3.57 ± 0.42 nmol/mg of protein	0.7562	0.8456	0.7546	0.0032	0.0834	0.8217	Authentic differences (ξ-square criterion) in appearance of signs of abstinence: Grit with teeth [2]: 0.8652; Authentic differences (ξ-square criterion) in appearance of signs of abstinence: Mastication [2]: 0.1032; Authentic differences (ξ-square criterion) in appearance of signs of abstinence: Piloerection [2]: 0.2567; Authentic differences (ξ-square criterion) in appearance of signs of abstinence: Ptosis [2]: 0.0320; Authentic differences (ξ-square criterion) in appearance of signs of abstinence: Rhinorrhea [2]: 0.4032; Authentic differences (ξ-square criterion) in appearance of signs of abstinence: Squeak when touched [2]: 0.1342; Activity of NOS, hippocampus [3, 4]: 3.09 ± 0.16 nmol/min/mg of protein; Activity of NOS, hypothalamus [3, 4]: 5.45 ± 0.24 nmol/min/mg of protein; Activity of NOS, midbrain [3, 4]: 2.60 ± 0.29 nmol/min/mg of protein; Activity of NOS, striatum [3, 4]: 1.26 ± 0.08 nmol/min/mg of protein; Activity of NOS, hippocampus [3, 5]: 2.51 ± 0.19 nmol/min/mg of protein; Activity of NOS, hypothalamus [3, 5]: 5.36 ± 0.33 nmol/min/mg of protein; Activity of NOS, midbrain [3, 5]: 1.99 ± 0.29 nmol/min/mg of protein; Activity of NOS, striatum [3, 5]: 1.29 ± 0.09 nmol/min/mg of protein
O=C([O-])c1ccc2c(=O)[nH][nH]c(=O)c2c1.O=C([O-])c1ccc2c(=O)[nH][nH]c(=O)c2c1.[Na+].[Na+] [Compound 18, disodium salt of 6-carboxy-benzo [d]-3H-pyridazine-1,4-dione]	6.31 ± 0.58 nmol/mg of protein	6.66 ± 0.63 nmol/mg of protein	4.31 ± 0.37 nmol/mg of protein	6.47 ± 0.72 nmol/mg of protein	6.77 ± 0.83 nmol/mg of protein	6.65 ± 0.70 nmol/mg of protein	6.11 ± 0.29 nmol/mg of protein	6.99 ± 0.82 nmol/mg of protein	5.85 ± 0.47 nmol/mg of protein	4.93 ± 0.39 nmol/mg of protein	5.24 ± 0.49 nmol/mg of protein	6.91 ± 0.58 nmol/mg of protein	5.75 ± 0.39 nmol/mg of protein	3.57 ± 0.42 nmol/mg of protein	0.7562	0.8456	0.7546	0.0032	0.0834	0.8217	Authentic differences (ξ-square criterion) in appearance of signs of abstinence: Grit with teeth [2]: 0.8652; Authentic differences (ξ-square criterion) in appearance of signs of abstinence: Mastication [2]: 0.1032; Authentic differences (ξ-square criterion) in appearance of signs of abstinence: Piloerection [2]: 0.2567; Authentic differences (ξ-square criterion) in appearance of signs of abstinence: Ptosis [2]: 0.0320; Authentic differences (ξ-square criterion) in appearance of signs of abstinence: Rhinorrhea [2]: 0.4032; Authentic differences (ξ-square criterion) in appearance of signs of abstinence: Squeak when touched [2]: 0.1342; Activity of NOS, hippocampus [3, 4]: 3.09 ± 0.16 nmol/min/mg of protein; Activity of NOS, hypothalamus [3, 4]: 5.45 ± 0.24 nmol/min/mg of protein; Activity of NOS, midbrain [3, 4]: 2.60 ± 0.29 nmol/min/mg of protein; Activity of NOS, striatum [3, 4]: 1.26 ± 0.08 nmol/min/mg of protein; Activity of NOS, hippocampus [3, 5]: 2.51 ± 0.19 nmol/min/mg of protein; Activity of NOS, hypothalamus [3, 5]: 5.36 ± 0.33 nmol/min/mg of protein; Activity of NOS, midbrain [3, 5]: 1.99 ± 0.29 nmol/min/mg of protein; Activity of NOS, striatum [3, 5]: 1.29 ± 0.09 nmol/min/mg of protein
